Source: US20240116897A1, “BENZOTHIAZOLE AND BENZIMIDAZOLE DERIVATIVES, PHARMACEUTICALLY ACCEPTABLE SALT THEREOF, PREPARATION METHOD THEREFOR, AND PHARMACEUTICAL COMPOSITION COMPRISING SAME AS ACTIVE INGREDIENT” (KOREA RESEARCH INSTITUTE OF CHEMICAL TECHNOLOGY, priority 2021, published 2024)

Molecular target: T1, SIRT7 protein (Homo sapiens, UniProt Q9NRC8)
T1 construct: purchased SignalChem S41-30H
T1 sequence (Q9NRC8 1-400): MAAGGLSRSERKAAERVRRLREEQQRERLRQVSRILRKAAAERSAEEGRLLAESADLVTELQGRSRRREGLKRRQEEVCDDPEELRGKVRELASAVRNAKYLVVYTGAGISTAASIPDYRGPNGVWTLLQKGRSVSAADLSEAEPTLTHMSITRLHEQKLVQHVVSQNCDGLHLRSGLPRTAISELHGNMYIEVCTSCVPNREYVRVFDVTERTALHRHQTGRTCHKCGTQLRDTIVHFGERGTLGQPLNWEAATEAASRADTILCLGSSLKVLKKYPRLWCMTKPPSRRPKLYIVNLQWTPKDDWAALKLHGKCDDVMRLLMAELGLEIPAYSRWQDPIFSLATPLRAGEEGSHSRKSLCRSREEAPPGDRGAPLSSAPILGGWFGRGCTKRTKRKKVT
Assay: SIRT Glo assay, inhibitory activity against Sirt7
Format: biochemical
Conditions: 10 μM compound
Experimental: Promega's Cat. No. 6450 SIRT Glo assay kit was used, and as the target SIRT7 protein, No. S41-30H protein of SignalChem's Cat. was used. Prepare the compound by diluting it in SIRT Glo buffer in advance to a concentration twice as thick as the final concentration. For the positive control group of white 384 well plate (Greiner Bioone, white, small volume, Cat. No. 874075), and for compound group, dilute sirt7 protein in SIRT Glo buffer and dispense by 5 μL to contain 20 ng per well. In the background control group, 10 μL of SIRT Glo buffer is dispensed.
After adding 5 μL of SIRT Glo buffer to the positive control group, and 5 μL of the diluted compound to the compound group, react for 30 minutes. After making the substrate provided in the SIRT Glo assay, adding 10 μL each, and reacting for 1 hour, the luciferase activity is measured with a microplate reader (Molecular Device, spectramax i3).
Subtract the luciferase level of the background control group in all wells. The % inhibition of the compound was used to obtain the compound's rate of inhibitory activity against sirt7 in the following:
% inhibition=100−(compound group/positive control group)×100.

| SMILES | inhibition at 10 µM [%] |
| --- | --- |
| CCCCOC(=O)CNC(=O)N1CCN(Cc2ccc(C(=O)Nc3nc4ccccc4s3)cc2)CC1 [Compound 1-48, butyl-(4-(4-(benzo[d]thiazol-2-ylcarbamoyl)benzyl)piperazine-1-carbonyl)glycinate] | 54 |
| O=C(Nc1nc2ccccc2s1)c1ccc(CN2CCN(C(=O)Nc3ccc(Cl)cc3)CC2)cc1 [Compound 1-49, 4-(4-(benzo[d]thiazol-2-ylcarbamoyl)benzyl)-N-(4-chlorophenyl)piperazine-1-carboxamide] | 89 |
| CCc1ccccc1NC(=O)N1CCN(Cc2ccc(C(=O)Nc3nc4ccccc4s3)cc2)CC1 [Compound 1-50, 4-(4-(benzo[d]thiazol-2-ylcarbamoyl)benzyl)-N-(2-ethylphenyl)piperazine-1-carboxamide] | 61 |
| Cc1ccc(NC(=O)N2CCN(Cc3ccc(C(=O)Nc4nc5ccccc5s4)cc3)CC2)cc1 [Compound 1-51, 4-(4-(benzo[d]thiazol-2-ylcarbamoyl)benzyl)-N-(p-tolyl)piperazine-1-carboxamide] | 90 |
| CCc1ccc(NC(=O)N2CCN(Cc3ccc(C(=O)Nc4nc5ccccc5s4)cc3)CC2)cc1 [Compound 1-52, 4-(4-(benzo[d]thiazol-2-ylcarbamoyl)benzyl)-N-(4-ethylphenyl)piperazine-1-carboxamide] | 85 |
| O=C(Nc1nc2ccccc2s1)c1ccc(CN2CCN(C(=O)NC3CCCCC3)CC2)cc1 [Compound 1-53, 4-(4-(benzo[d]thiazol-2-ylcarbamoyl)benzyl)-N-cyclohexylpiperazine-1-carboxamide] | 97 |
| O=C(Nc1nc2ccccc2s1)c1ccc(CN2CCN(C(=O)NCCl)CC2)cc1 [Compound 1-54, 4-(4-(benzo[d]thiazol-2-ylcarbamoyl)benzyl)-N-(chloromethyl)piperazine-1-carboxamide] | 100 |
| CCCNC(=O)N1CCN(Cc2ccc(C(=O)Nc3nc4ccccc4s3)cc2)CC1 [Compound 1-55, 4-(4-(benzo[d]thiazol-2-ylcarbamoyl)benzyl)-N-propylpiperazine-1-carboxamide] | 100 |
| CCOc1ccccc1NC(=O)N1CCN(Cc2ccc(C(=O)Nc3nc4ccccc4s3)cc2)CC1 [Compound 1-56, 4-(4-(benzo[d]thiazol-2-ylcarbamoyl)benzyl)-N-(2-ethoxyphenyl)piperazine-1-carboxamide] | 87 |
| CC(C)(C)CC(C)(C)NC(=O)N1CCN(Cc2ccc(C(=O)Nc3nc4ccccc4s3)cc2)CC1 [Compound 1-57, 4-(4-(benzo[d]thiazol-2-ylcarbamoyl)benzyl)-N-(2,4,4-trimethylpentan-2-yl)piperazine-1-carboxamide] | 12 |
| O=C(Nc1nc2ccccc2s1)c1ccc(CN2CCN(C(=O)Nc3ccccc3Br)CC2)cc1 [Compound 1-58, 4-(4-(benzo[d]thiazol-2-ylcarbamoyl)benzyl)-N-(2-bromophenyl)piperazine-1-carboxamide] | 87 |
| CCC(=O)N1CCN(Cc2ccc(C(=O)Nc3nc4ccccc4s3)cc2)CC1 [Compound 1-59, N-(benzo[d]thiazol-2-yl)-4-((4-propionylpiperazin-1-yl)methyl)benzamide] | 5 |
| O=C(Nc1nc2ccccc2s1)c1ccc(CN2CCN(C(=O)c3ccccc3)CC2)cc1 [Compound 1-60, N-(benzo[d]thiazol-2-yl)-4-((4-benzoylpiperazin-1-yl)methyl)benzamide] | 7 |
| CCN1CCN(Cc2ccc(C(=O)Nc3nc4ccccc4s3)cc2)CC1 [Compound 1-61, N-(benzo[d]thiazol-2-yl)-4-((4-ethylpiperazin-1-yl)methyl)benzamide] | 3 |
| O=C(Nc1nc2ccccc2s1)c1ccc(CN2CCN(Cc3ccccc3)CC2)cc1 [Compound 1-62, N-(benzo[d]thiazol-2-yl)-4-((4-benzylpiperazin-1-yl)methyl)benzamide] | 7 |
| CC(C)(C)OC(=O)N1CCC(=Cc2ccc(C(=O)Nc3nc4ccccc4s3)cc2)CC1 [Compound 1-63, tert-butyl 4-(4-(benzo[d]thiazol-2-ylcarbamoyl)benzylidene)piperidine-1-carboxylate] | 10 |
| CC(C)(C)OC(=O)N1CCC(Cc2ccc(C(=O)Nc3nc4ccccc4s3)cc2)CC1 [Compound 1-64, tert-butyl 4-(4-(benzol[d]thiazol-2-ylcarbamoyl)benzyl)piperidine-1-carboxylate] | 7 |

| SMILES | inhibition at 10 µM [%] |
| --- | --- |
| O=C(Nc1nc2ccccc2s1)c1ccc(C=C2CCNCC2)cc1 [Compound 1-65, N-(benzo[d]thiazol-2-yl)-4-(piperidin-4-ylidenemethyl)benzamide] | 5 |
| O=C(Nc1nc2ccccc2s1)c1ccc(CC2CCNCC2)cc1 [Compound 1-66, N-(benzo[d]thiazol-2-yl)-4-(piperidin-4-ylmethyl)benzamide] | 16 |
| CCNC(=O)N1CCC(=Cc2ccc(C(=O)Nc3nc4ccccc4s3)cc2)CC1 [Compound 1-67, 4-(4-(benzo[d]thiazol-2-ylcarbamoyl)benzylidene)-N-ethylpiperidine-1-carboxamide] | 92 |
| O=C(Nc1nc2ccccc2s1)c1ccc(C=C2CCN(C(=O)Nc3ccccc3)CC2)cc1 [Compound 1-68, 4-(4-(benzo[d]thiazol-2-ylcarbamoyl)benzylidene)-N-phenylpiperidine-1-carboxamide] | 100 |
| CCNC(=O)N1CCC(Cc2ccc(C(=O)Nc3nc4ccccc4s3)cc2)CC1 [Compound 1-69, 4-(4-(benzo[d]thiazol-2-ylcarbamoyl)benzyl)-N-ethylpiperidine-1-carboxamide] | 100 |
| O=C(Nc1nc2ccccc2s1)c1ccc(CN2C[C@@H]3C[C@H]2CN3)cc1 [Compound 1-71, 4-(((1S,4S)-2,5-diazabicyclo[2.2.1]heptan-2-yl)methyl)-N-(benzo[d]thiazol-2-yl)benzamide] | 23 |
| CCNC(=O)N1C[C@@H]2C[C@H]1CN2Cc1ccc(C(=O)Nc2nc3ccccc3s2)cc1 [Compound 1-72, (1S,4S)-5-(4-(benzo[d]thiazol-2-ylcarbamoyl)benzyl)-N-ethyl-2,5-diazabicyclo[2.2.1]heptane-2-carboxamide] | 40 |
| O=C(Nc1nc2ccccc2s1)c1ccc(CN2C[C@@H]3C[C@H]2CN3C(=O)Nc2ccccc2)cc1 [Compound 1-73, (1S,4S)-5-(4-(benzo[d]thiazol-2-ylcarbamoyl)benzyl)-N-phenyl-2,5-diazabicyclo[2.2.1]heptane-2-carboxamide] | 64 |
| CC(C)(C)OC(=O)N1CC=C(c2ccc(C(=O)Nc3nc4ccccc4s3)cc2)CC1 [Compound 1-74, tert-butyl 4-(4-(benzo[d]thiazol-2-ylcarbamoyl)phenyl)-3,6-dihydropyridine-1-(2H)-carboxylate] | 10 |
| O=C(Nc1nc2ccccc2s1)c1ccc(C2=CCNCC2)cc1 [Compound 1-75, N-(benzo[d]thiazol-2-yl)-4-(1,2,3,6-tetrahydropyridin-4-yl)benzamide] | 26 |
| O=C(Nc1nc2ccccc2s1)c1ccc(C2=CCN(C(=O)Nc3ccc(C(F)(F)F)cc3)CC2)cc1 [Compound 1-76] | 5 |
| O=C(Nc1nc2ccccc2s1)c1ccc(C2CCN(C(=O)Nc3ccc(C(F)(F)F)cc3)CC2)cc1 [Compound 1-77] | 6 |
| CC(C)(C)OC(=O)N1CCC(=Cc2ccc(C(=O)Nc3nc4ccccc4s3)c(C(F)(F)F)c2)CC1 [Compound 1-78, tert-butyl 4-(4-(benzo[d]thiazol-2-ylcarbamoyl)-3-(trifluoromethyl)benzylidene)piperidine-1-carboxylate] | 14 |
| O=C(Nc1nc2ccccc2s1)c1ccc(C=C2CCNCC2)cc1C(F)(F)F [Compound 1-79, N-(benzo[d]thiazol-2-yl)-4-(piperidin-4-ylidenemethyl)-2-(trifluoromethyl)benzamide] | 71 |
| CCNC(=O)N1CCC(=Cc2ccc(C(=O)Nc3nc4ccccc4s3)c(C(F)(F)F)c2)CC1 [Compound 1-80, 4-(4-(benzo[d]thiazol-2-ylcarbamoyl)-3-(trifluoromethyl)benzylidene)-N-ethylpiperidine-1-carboxamide] | 80 |
| O=C(Nc1nc2ccccc2s1)c1ccc(C=C2CCN(C(=O)Nc3ccccc3)CC2)cc1C(F)(F)F [Compound 1-81, 4-(4-(benzo[d]thiazol-2-ylcarbamoyl)-3-(trifluoromethyl)benzylidene)-N-phenylpiperidine-1-carboxamide] | 32 |
| CC(C)(C)OC(=O)N1CCC(Cc2ccc(C(=O)Nc3nc4ccccc4s3)c(C(F)(F)F)c2)CC1 [Compound 1-82, tert-butyl 4-(4-(benzo[d]thiazol-2-ylcarbamoyl)-3-(trifluoromethyl)benzyl)piperidine-1-carboxylate] | 2 |
